Reference: patent US11697648B2, “Fused pyrimidine pyridinone compounds as JAK inhibitors” (THERAVANCE BIOPHARMA R&D IP, LLC, priority 2019, dated 2023)

Legend:
JAK1 = JAK1 (Homo sapiens (Human), UniProt P23458); experiment: Biochemical JAK1 kinase assay (LanthaScreen)
How it was run: (§1)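 GST-JAK + GFP-STAT1 peptide, HEPES pH 7.5/MgCl2/EGTA/Brij-35 buffer; cpd preincubation 1 h RT; ATP start, 1 h RT; stop with 10 mM EDTA + 2 nM Tb-anti-pSTAT1; TR-FRET 520/495. 4-parameter IC50 → pKi (Cheng-Prusoff).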

JAK2 = JAK2 (Homo sapiens (Human), UniProt O60674); experiment: Biochemical JAK2 kinase assay (LanthaScreen)
Chain of JAK2 (O60674 whole entry): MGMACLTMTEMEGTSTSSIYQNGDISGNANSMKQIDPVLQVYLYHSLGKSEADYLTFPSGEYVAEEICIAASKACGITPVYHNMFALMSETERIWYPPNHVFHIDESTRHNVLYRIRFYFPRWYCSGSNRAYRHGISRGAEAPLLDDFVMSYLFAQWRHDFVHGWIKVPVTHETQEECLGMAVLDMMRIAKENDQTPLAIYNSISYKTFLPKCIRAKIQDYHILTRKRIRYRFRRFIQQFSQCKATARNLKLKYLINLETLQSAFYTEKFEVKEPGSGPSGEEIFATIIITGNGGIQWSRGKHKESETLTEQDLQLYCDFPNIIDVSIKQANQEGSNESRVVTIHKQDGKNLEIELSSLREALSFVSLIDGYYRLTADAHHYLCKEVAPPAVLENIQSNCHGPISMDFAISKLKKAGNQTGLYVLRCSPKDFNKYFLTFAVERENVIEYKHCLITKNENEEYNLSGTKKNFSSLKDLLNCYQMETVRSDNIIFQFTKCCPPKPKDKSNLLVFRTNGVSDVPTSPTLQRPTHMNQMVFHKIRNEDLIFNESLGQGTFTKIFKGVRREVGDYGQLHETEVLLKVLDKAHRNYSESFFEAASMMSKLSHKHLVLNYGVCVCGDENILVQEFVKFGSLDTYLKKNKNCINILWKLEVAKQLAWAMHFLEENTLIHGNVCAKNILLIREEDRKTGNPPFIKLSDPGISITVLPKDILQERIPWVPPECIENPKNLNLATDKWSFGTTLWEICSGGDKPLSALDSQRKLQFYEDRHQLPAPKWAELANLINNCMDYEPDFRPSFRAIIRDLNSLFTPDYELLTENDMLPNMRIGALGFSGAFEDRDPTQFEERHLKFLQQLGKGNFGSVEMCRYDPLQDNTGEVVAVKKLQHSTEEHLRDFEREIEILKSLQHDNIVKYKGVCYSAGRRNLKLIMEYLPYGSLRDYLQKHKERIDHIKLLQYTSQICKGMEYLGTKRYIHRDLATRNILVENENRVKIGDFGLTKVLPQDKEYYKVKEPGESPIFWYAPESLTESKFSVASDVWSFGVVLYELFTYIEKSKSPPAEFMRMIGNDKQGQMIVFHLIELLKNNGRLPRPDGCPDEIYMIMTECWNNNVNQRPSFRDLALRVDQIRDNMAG
How it was run: as §1

JAK3 = JAK3 (Homo sapiens (Human), UniProt P52333); experiment: Biochemical JAK3 kinase assay (LanthaScreen)
Chain of JAK3 (P52333 whole entry): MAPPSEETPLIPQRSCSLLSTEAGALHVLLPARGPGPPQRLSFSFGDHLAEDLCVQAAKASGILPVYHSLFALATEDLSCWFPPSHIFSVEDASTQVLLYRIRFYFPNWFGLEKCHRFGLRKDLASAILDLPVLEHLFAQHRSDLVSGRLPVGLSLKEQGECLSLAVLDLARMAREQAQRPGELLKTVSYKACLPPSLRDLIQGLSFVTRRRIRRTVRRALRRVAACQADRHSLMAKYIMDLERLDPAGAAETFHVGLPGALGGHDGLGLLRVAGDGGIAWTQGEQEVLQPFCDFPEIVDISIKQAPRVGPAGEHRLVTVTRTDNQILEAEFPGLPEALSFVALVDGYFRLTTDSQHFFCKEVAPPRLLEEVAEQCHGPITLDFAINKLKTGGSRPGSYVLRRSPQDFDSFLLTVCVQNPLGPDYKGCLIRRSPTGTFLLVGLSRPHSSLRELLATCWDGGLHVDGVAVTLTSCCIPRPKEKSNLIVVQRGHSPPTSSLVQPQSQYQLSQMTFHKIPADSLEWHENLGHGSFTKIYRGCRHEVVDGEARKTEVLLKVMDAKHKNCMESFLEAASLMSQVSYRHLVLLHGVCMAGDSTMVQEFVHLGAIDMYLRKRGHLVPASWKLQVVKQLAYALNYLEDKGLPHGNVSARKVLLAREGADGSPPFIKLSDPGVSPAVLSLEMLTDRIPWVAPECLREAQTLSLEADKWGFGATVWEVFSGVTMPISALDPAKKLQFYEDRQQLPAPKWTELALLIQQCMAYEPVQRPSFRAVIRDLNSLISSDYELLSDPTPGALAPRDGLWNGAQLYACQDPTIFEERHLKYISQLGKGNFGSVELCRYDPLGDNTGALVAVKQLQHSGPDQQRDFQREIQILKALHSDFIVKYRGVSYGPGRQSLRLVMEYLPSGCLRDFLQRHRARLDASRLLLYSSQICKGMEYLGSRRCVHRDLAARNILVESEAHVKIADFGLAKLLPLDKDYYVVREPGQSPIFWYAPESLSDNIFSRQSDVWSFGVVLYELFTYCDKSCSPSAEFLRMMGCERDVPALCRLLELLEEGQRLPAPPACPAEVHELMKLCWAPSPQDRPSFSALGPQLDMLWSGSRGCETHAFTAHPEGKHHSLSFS
How it was run: as §1

Tyk2 = Tyk2 (Homo sapiens (Human), UniProt P29597); experiment: Biochemical Tyk2 kinase assay (LanthaScreen)
Chain of Tyk2 (P29597 whole entry): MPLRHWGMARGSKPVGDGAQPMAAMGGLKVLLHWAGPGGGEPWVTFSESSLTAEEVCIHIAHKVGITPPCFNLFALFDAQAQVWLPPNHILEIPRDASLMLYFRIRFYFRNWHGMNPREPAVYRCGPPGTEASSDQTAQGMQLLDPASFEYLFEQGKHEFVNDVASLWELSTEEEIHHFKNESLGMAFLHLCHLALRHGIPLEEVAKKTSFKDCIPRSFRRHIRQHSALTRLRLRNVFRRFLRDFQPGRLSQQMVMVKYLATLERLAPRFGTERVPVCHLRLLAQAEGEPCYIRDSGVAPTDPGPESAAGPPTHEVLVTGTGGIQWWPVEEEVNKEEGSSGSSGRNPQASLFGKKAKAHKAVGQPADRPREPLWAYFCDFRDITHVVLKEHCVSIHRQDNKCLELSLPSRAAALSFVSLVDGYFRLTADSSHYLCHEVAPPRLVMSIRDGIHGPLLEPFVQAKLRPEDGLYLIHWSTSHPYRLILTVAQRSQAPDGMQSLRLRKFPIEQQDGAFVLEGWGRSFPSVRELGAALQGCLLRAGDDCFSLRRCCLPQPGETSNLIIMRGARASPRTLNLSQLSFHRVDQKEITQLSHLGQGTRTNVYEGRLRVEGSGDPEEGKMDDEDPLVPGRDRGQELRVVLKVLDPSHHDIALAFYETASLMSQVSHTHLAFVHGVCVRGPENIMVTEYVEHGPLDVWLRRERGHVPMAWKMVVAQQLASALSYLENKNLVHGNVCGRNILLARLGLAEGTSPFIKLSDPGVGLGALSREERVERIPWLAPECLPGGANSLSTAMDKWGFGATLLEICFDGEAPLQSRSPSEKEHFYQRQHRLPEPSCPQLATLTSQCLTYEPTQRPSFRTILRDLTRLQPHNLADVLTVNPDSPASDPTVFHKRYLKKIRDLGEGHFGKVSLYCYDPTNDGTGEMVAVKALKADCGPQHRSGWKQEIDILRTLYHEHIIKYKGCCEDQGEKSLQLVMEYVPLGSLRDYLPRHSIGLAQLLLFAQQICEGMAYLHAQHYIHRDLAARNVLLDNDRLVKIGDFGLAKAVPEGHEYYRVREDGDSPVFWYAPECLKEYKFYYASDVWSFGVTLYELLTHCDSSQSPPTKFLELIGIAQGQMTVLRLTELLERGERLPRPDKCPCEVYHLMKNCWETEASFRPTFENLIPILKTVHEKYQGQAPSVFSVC
How it was run: as §1

[1] = system: IL-2 stimulated STAT5 phosphorylation in Tall-1 human T cell line (JAK3); experiment: Cellular JAK3 potency assay: inhibition of IL-2 stimulated pSTAT5 in Tall-1 T cells; type: cell-based
How it was run: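 Tall-1 cells, 45,000 per well, preincubated 1 hour with compound at 37 °C, then stimulated 30 minutes with IL-2 at 300 ng/ml final. pSTAT5 (Tyr694/699) in lysates quantified by AlphaLISA SureFire Ultra. pIC50 derived from inhibition curves, given as mean with SD.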

[2] = selectivity JAK3 over JAK1, difference of pKi
[3] = IL-2 stimulated pSTAT5, Tall-1 T cells
[4] = selectivity, difference of pKi values
[5] = IL-2 stimulated pSTAT5 in Tall-1 T cells

Chain of JAK1 (P23458 whole entry): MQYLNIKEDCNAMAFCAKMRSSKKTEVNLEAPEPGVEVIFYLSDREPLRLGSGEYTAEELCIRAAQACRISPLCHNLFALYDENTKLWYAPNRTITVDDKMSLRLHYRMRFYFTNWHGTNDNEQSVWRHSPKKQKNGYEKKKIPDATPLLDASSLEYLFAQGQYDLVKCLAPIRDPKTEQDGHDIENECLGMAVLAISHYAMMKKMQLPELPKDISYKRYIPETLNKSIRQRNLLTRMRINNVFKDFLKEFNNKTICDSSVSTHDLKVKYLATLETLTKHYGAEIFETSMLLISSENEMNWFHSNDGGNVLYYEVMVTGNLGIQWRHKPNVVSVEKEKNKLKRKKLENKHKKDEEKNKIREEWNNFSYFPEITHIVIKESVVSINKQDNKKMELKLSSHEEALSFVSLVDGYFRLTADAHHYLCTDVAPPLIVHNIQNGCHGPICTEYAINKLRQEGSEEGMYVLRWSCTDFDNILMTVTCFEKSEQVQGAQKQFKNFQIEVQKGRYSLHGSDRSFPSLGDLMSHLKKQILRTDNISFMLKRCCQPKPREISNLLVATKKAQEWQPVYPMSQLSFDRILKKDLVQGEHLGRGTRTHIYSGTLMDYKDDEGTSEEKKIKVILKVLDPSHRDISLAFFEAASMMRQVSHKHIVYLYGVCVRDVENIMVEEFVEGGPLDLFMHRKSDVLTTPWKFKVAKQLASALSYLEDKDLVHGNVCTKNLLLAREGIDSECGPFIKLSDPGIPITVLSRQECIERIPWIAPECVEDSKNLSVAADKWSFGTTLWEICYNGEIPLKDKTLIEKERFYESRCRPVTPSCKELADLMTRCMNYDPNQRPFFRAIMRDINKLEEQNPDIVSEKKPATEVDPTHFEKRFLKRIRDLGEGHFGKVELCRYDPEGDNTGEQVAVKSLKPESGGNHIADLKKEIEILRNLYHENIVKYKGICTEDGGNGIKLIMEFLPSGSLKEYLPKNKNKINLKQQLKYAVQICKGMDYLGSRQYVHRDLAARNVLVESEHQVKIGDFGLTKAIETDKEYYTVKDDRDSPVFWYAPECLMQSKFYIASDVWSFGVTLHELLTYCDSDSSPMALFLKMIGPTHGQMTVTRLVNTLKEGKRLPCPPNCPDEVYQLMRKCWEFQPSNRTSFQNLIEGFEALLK

SMILES | JAK 1 (pKi) (JAK1) | JAK 2 (pKi) (JAK2) | JAK 3 (pKi) (JAK3) | JAK3 (pKi)-JAK1 (pKi) (JAK3; [2]) | Tyk 2 (pKi) (Tyk2) | Tall-1 (pIC50) [1, 3] | JAK3 (pKi)-JAK1 (pKi) (JAK3; [4]) | Tall-1 (pIC50) [1, 5]
C=CC(=O)N1CC(CCn2c(=O)ccc3cnc(Nc4ccc(OCCO)cc4)nc32)C1 [Example 223] | E (E represents a pKi value of 7 or below (Ki of 100 nM or above)) | E (E represents a pKi value of 7 or below (Ki of 100 nM or above)) | A (A represents a pKi value≥10 (Ki≤0.1 nM)) | A (A represents a value of 3 or above) | E (E represents a pKi value of 7 or below (Ki of 100 nM or above)) | B (B represents a pC50 value between 6.7 (included) and 7.5 (IC50 between 200 nM and 32 nM)) | – | –
C=CC(=O)N1CC(C(C)(C)Cn2c(=O)ccc3cnc(Nc4ccc(N5CCN(C(C)=O)CC5)cc4)nc32)C1 [Example 184] | E (E represents a pKi value of 7 or below (Ki of 100 nM or above)) | E (E represents a pKi value of 7 or below (Ki of 100 nM or above)) | A (A represents a pKi value≥10 (Ki≤0.1 nM)) | A (A represents a value of 3 or above) | E (E represents a pKi value of 7 or below (Ki of 100 nM or above)) | B (B represents a pC50 value between 6.7 (included) and 7.5 (IC50 between 200 nM and 32 nM)) | – | –
C=CC(=O)N1CCN(CCn2c(=O)ccc3cnc(Nc4ccc(N5C[C@@H](C)N(C)[C@@H](C)C5)cc4)nc32)CC1 [Example 248] | E (E represents a pKi value of 7 or below (Ki of 100 nM or above)) | E (E represents a pKi value of 7 or below (Ki of 100 nM or above)) | B (B represents pKi value between 9 and 10 (Ki between 1 nM and 0.1 nM)) | – | E (E represents a pKi value of 7 or below (Ki of 100 nM or above)) | – | A (A represents a value of 3 or above) | A (A represents a pIC50 value≥7.5 (IC50≤32 nM))
C=CC(=O)N1CC(CCn2c(=O)ccc3cnc(Nc4cccc(N5CCN(S(=O)(=O)CC#N)CC5)c4)nc32)C1 [Example 128] | E (E represents a pKi value of 7 or below (Ki of 100 nM or above)) | E (E represents a pKi value of 7 or below (Ki of 100 nM or above)) | A (A represents a pKi value≥10 (Ki≤0.1 nM)) | A (A represents a value of 3 or above) | E (E represents a pKi value of 7 or below (Ki of 100 nM or above)) | B (B represents a pC50 value between 6.7 (included) and 7.5 (IC50 between 200 nM and 32 nM)) | – | –
C=CC(=O)N1CCN(CCn2c(=O)ccc3cnc(Nc4cnn(CCOC(C)C)c4)nc32)[C@@H](CC)C1 [Example 220] | E (E represents a pKi value of 7 or below (Ki of 100 nM or above)) | E (E represents a pKi value of 7 or below (Ki of 100 nM or above)) | B (B represents pKi value between 9 and 10 (Ki between 1 nM and 0.1 nM)) | A (A represents a value of 3 or above) | E (E represents a pKi value of 7 or below (Ki of 100 nM or above)) | B (B represents a pC50 value between 6.7 (included) and 7.5 (IC50 between 200 nM and 32 nM)) | – | –
C=CC(=O)N1CCN(CCn2c(=O)ccc3cnc(Nc4cnn(Cc5ccccc5)c4)nc32)[C@@H](C)C1 [Example 237] | E (E represents a pKi value of 7 or below (Ki of 100 nM or above)) | E (E represents a pKi value of 7 or below (Ki of 100 nM or above)) | B (B represents pKi value between 9 and 10 (Ki between 1 nM and 0.1 nM)) | – | E (E represents a pKi value of 7 or below (Ki of 100 nM or above)) | – | A (A represents a value of 3 or above) | B (B represents a pC50 value between 6.7 (included) and 7.5 (IC50 between 200 nM and 32 nM))
C=CC(=O)N1CC(CCn2c(=O)ccc3cnc(Nc4ccc(N5CCN(CC(F)(F)F)CC5)cc4)nc32)C1 [Example 119] | E (E represents a pKi value of 7 or below (Ki of 100 nM or above)) | E (E represents a pKi value of 7 or below (Ki of 100 nM or above)) | A (A represents a pKi value≥10 (Ki≤0.1 nM)) | A (A represents a value of 3 or above) | E (E represents a pKi value of 7 or below (Ki of 100 nM or above)) | B (B represents a pC50 value between 6.7 (included) and 7.5 (IC50 between 200 nM and 32 nM)) | – | –
C=CC(=O)N1CCN(CCn2c(=O)ccc3cnc(Nc4ccc(N5CCN(C)CC5)nc4)nc32)CC1 [Example 37] | E (E represents a pKi value of 7 or below (Ki of 100 nM or above)) | E (E represents a pKi value of 7 or below (Ki of 100 nM or above)) | B (B represents pKi value between 9 and 10 (Ki between 1 nM and 0.1 nM)) | A (A represents a value of 3 or above) | E (E represents a pKi value of 7 or below (Ki of 100 nM or above)) | B (B represents a pC50 value between 6.7 (included) and 7.5 (IC50 between 200 nM and 32 nM)) | – | –
C=CC(=O)N1CCN(CCn2c(=O)ccc3cnc(Nc4ccc(N5CCN(C)CC5)c(C)c4)nc32)CC1 [Example 49] | E (E represents a pKi value of 7 or below (Ki of 100 nM or above)) | E (E represents a pKi value of 7 or below (Ki of 100 nM or above)) | B (B represents pKi value between 9 and 10 (Ki between 1 nM and 0.1 nM)) | A (A represents a value of 3 or above) | E (E represents a pKi value of 7 or below (Ki of 100 nM or above)) | B (B represents a pC50 value between 6.7 (included) and 7.5 (IC50 between 200 nM and 32 nM)) | – | –
C=CC(=O)N1CC(CCn2c(=O)ccc3cnc(Nc4ccc(N5CCN(C(C)=O)C[C@@H]5C)cc4)nc32)C1 [Example 168] | E (E represents a pKi value of 7 or below (Ki of 100 nM or above)) | E (E represents a pKi value of 7 or below (Ki of 100 nM or above)) | A (A represents a pKi value≥10 (Ki≤0.1 nM)) | A (A represents a value of 3 or above) | E (E represents a pKi value of 7 or below (Ki of 100 nM or above)) | A (A represents a pIC50 value≥7.5 (IC50≤32 nM)) | – | –
C=CC(=O)N1CC(CCn2c(=O)ccc3cnc(Nc4ccc(N5CCN(C)CC5)c(Cl)c4)nc32)C1 [Example 17] | E (E represents a pKi value of 7 or below (Ki of 100 nM or above)) | E (E represents a pKi value of 7 or below (Ki of 100 nM or above)) | B (B represents pKi value between 9 and 10 (Ki between 1 nM and 0.1 nM)) | A (A represents a value of 3 or above) | E (E represents a pKi value of 7 or below (Ki of 100 nM or above)) | B (B represents a pC50 value between 6.7 (included) and 7.5 (IC50 between 200 nM and 32 nM)) | – | –
C=CC(=O)N1CC(CCn2c(=O)ccc3cnc(Nc4cnn(-c5ccccc5)c4)nc32)C1 [Example 34] | E (E represents a pKi value of 7 or below (Ki of 100 nM or above)) | E (E represents a pKi value of 7 or below (Ki of 100 nM or above)) | B (B represents pKi value between 9 and 10 (Ki between 1 nM and 0.1 nM)) | A (A represents a value of 3 or above) | E (E represents a pKi value of 7 or below (Ki of 100 nM or above)) | B (B represents a pC50 value between 6.7 (included) and 7.5 (IC50 between 200 nM and 32 nM)) | – | –
C=CC(=O)N1CC(CCn2c(=O)ccc3cnc(Nc4ccc(N5CCN(C(C)=O)CC5)nc4)nc32)C1 [Example 183] | E (E represents a pKi value of 7 or below (Ki of 100 nM or above)) | E (E represents a pKi value of 7 or below (Ki of 100 nM or above)) | A (A represents a pKi value≥10 (Ki≤0.1 nM)) | A (A represents a value of 3 or above) | E (E represents a pKi value of 7 or below (Ki of 100 nM or above)) | C (C represents a pIC50 value between 6 and 6.7 (IC50 between 1 μM and 200 nM)) | – | –
C=CC(=O)N1CC(CCn2c(=O)ccc3cnc(Nc4ccc(N5CCOCC5)c(F)c4)nc32)C1 [Example 23] | E (E represents a pKi value of 7 or below (Ki of 100 nM or above)) | E (E represents a pKi value of 7 or below (Ki of 100 nM or above)) | B (B represents pKi value between 9 and 10 (Ki between 1 nM and 0.1 nM)) | A (A represents a value of 3 or above) | E (E represents a pKi value of 7 or below (Ki of 100 nM or above)) | B (B represents a pC50 value between 6.7 (included) and 7.5 (IC50 between 200 nM and 32 nM)) | – | –
C=CC(=O)N1CC(CC)(CCn2c(=O)ccc3cnc(Nc4ccc(N5CCN(C)CC5)cc4)nc32)C1 [Example 217] | E (E represents a pKi value of 7 or below (Ki of 100 nM or above)) | D (D represents a pKi value between 7 and 8 (Ki between 100 nM and 10 nM)) | B (B represents pKi value between 9 and 10 (Ki between 1 nM and 0.1 nM)) | A (A represents a value of 3 or above) | E (E represents a pKi value of 7 or below (Ki of 100 nM or above)) | A (A represents a pIC50 value≥7.5 (IC50≤32 nM)) | – | –
